# Laboratory results: US11166893B2, “Topical hirsutism treatment” (BMG PHARMA SRL, priority 2015, dated 2021)
# Tested on: growth of superfluous hair
# Experiment: Inhibition of superfluous hair growth evaluated by the Trichoscan method
# Format: in vivo
# Details: 10% capryloyl glycine cream, topical, compared with eflornithine efficacy reported in Eur. J Dermatol 2008, 18 (1): 65-70
# Method: The ability of capryloyl glycine to inhibit the growth of superfluous hair was evaluated by the Trichoscan® method (http://trichoscan.com/pages/english/professional-info/reference-values.php).
structure (smiles),measurement,value
CCCCCCCC(=O)NCC(=O)O [capryloyl glycine],ability to inhibit the growth of superfluous hair (efficacy),efficacy comparable to that of eflornithine
